Reference: PubChem BioAssay (NCI)
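The compound was tested at five concentrations on cells cultured in 96-well plates, with a 48-hour exposure period. GI50 marks 50% less growth. TGI is the concentration that stops growth completely.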

How the values were obtained:
Test in all cases: NCI-60 cell line screen, 48 h
[1] = system: 786-0 renal
[2] = system: A498 renal
[3] = system: A549 NSCLC
[4] = system: ACHN renal
[5] = system: BT-549 breast
[6] = system: CAKI-1 renal
[7] = system: CCRF-CEM leukemia
[8] = system: COLO 205 colon
[9] = system: DU-145 prostate
[10] = system: HCC-2998 colon
[11] = system: HCT-116 colon
[12] = system: HCT-15 colon
[13] = system: HL-60(TB) leukemia
[14] = system: HOP-62 NSCLC
[15] = system: HOP-92 NSCLC
[16] = system: HS 578T breast
[17] = system: HT29 colon
[18] = system: IGROV1 ovarian
[19] = system: K-562 leukemia
[20] = system: KM12 colon
[21] = system: LOX IMVI melanoma
[22] = system: M14 melanoma
[23] = system: MALME-3M melanoma
[24] = system: MCF7 breast
[25] = system: MDA-MB-231 breast
[26] = system: MOLT-4 leukemia
[27] = system: NCI-H226 lung
[28] = system: NCI-H23 lung
[29] = system: NCI-H460 lung
[30] = system: NCI-H522 lung
[31] = system: NCI/ADR-RES ovarian
[32] = system: OVCAR-3 ovarian
[33] = system: OVCAR-4 ovarian
[34] = system: OVCAR-5 ovarian
[35] = system: OVCAR-8 ovarian
[36] = system: PC-3 prostate
[37] = system: RPMI-8226 leukemia
[38] = system: RXF 393 renal
[39] = system: SF-268 CNS
[40] = system: SF-539 CNS
[41] = system: SK-MEL-2 melanoma
[42] = system: SK-MEL-28 melanoma
[43] = system: SK-MEL-5 melanoma
[44] = system: SK-OV-3 ovarian
[45] = system: SN12C renal
[46] = system: SNB-19 CNS
[47] = system: SNB-75 CNS
[48] = system: SR leukemia
[49] = system: SW-620 colon
[50] = system: TK-10 renal
[51] = system: U251 CNS
[52] = system: UACC-62 melanoma
[53] = system: UO-31 renal

COc1ccc(C2=Nn3c(nnc3-n3nc(C)cc3C)SC2)cc1
GI50 [1]: 146 nM
TGI [1]: > 100 µM
GI50 [2]: 30.3 nM
TGI [2]: 207 nM
GI50 [3]: 76.5 nM
TGI [3]: > 100 µM
GI50 [4]: 78.1 nM
TGI [4]: > 100 µM
GI50 [5]: 192 nM
TGI [5]: > 100 µM
GI50 [6]: 44.3 nM
TGI [6]: > 43.4 µM
GI50 [7]: 38 nM
TGI [7]: > 100 µM
GI50 [8]: 46 nM
TGI [8]: 218 nM
GI50 [9]: 40 nM
TGI [9]: 1250 nM
GI50 [10]: 254 nM
TGI [10]: > 100 µM
GI50 [11]: 55.4 nM
TGI [11]: > 100 µM
GI50 [12]: 50 nM
TGI [12]: > 100 µM
GI50 [13]: 35.8 nM
TGI [13]: 482 nM
GI50 [14]: 83.9 nM
TGI [14]: > 100 µM
GI50 [15]: 24.5 nM
TGI [15]: 836 nM
TGI [16]: > 100 µM
GI50 [17]: 40.1 nM
GI50 [18]: 107 nM
TGI [18]: > 100 µM
GI50 [19]: 35.1 nM
TGI [19]: > 100 µM
GI50 [20]: 57 nM
TGI [20]: > 100 µM
GI50 [21]: 69.4 nM
TGI [21]: > 100 µM
GI50 [22]: 62.6 nM
TGI [22]: > 100 µM
GI50 [23]: 40.7 nM
TGI [23]: 70.5 µM
GI50 [24]: 64.2 nM
TGI [24]: > 100 µM
GI50 [25]: 177 nM
TGI [25]: > 100 µM
GI50 [26]: 116 nM
TGI [26]: > 100 µM
TGI [27]: > 100 µM
GI50 [28]: 180 nM
TGI [28]: > 100 µM
GI50 [29]: 51.8 nM
TGI [29]: > 100 µM
GI50 [30]: 31 nM
TGI [30]: 529 nM
GI50 [31]: 53.6 nM
TGI [31]: > 100 µM
GI50 [32]: 34.6 nM
TGI [32]: 114 nM
GI50 [33]: 4.53 µM
TGI [33]: > 100 µM
GI50 [34]: 340 nM
TGI [34]: > 100 µM
GI50 [35]: 69.1 nM
TGI [35]: > 100 µM
GI50 [36]: 45.3 nM
TGI [36]: > 100 µM
GI50 [37]: 60.5 nM
TGI [37]: > 70.3 µM
GI50 [38]: 59.9 nM
TGI [38]: > 100 µM
GI50 [39]: 80.6 nM
TGI [39]: > 100 µM
GI50 [40]: 23 nM
TGI [40]: 59.4 nM
GI50 [41]: 59.9 nM
TGI [41]: > 100 µM
GI50 [42]: 294 nM
TGI [42]: > 100 µM
GI50 [43]: 48.9 nM
TGI [43]: 4.23 µM
GI50 [44]: 90.8 nM
TGI [44]: > 100 µM
GI50 [45]: 298 nM
TGI [45]: > 100 µM
GI50 [46]: 83.1 nM
TGI [46]: > 100 µM
GI50 [47]: 21.4 nM
GI50 [48]: 24.2 nM
TGI [48]: > 100 µM
GI50 [49]: 42.3 nM
TGI [49]: > 100 µM
GI50 [50]: 227 nM
TGI [50]: > 100 µM
GI50 [51]: 53.2 nM
TGI [51]: > 100 µM
GI50 [52]: 46.2 nM
TGI [52]: > 100 µM
GI50 [53]: 212 nM
TGI [53]: > 100 µM
